For the assay, the target named is human RIP1 kinase domain (2-375) (Homo sapiens (Human), UniProt Q13546). Nature of the assay: biochemical. The class given is biochemical. The conditions noted are these: 50 uM ATP. Here is the method: Example 794: RIP1 Kinase Inhibition Assays (Biochemical Assay)
The compounds of the present invention were tested for their capacity to inhibit RIP1K activity as described below.
The ability of the receptor interacting protein kinase (RIPK1) to catalyze the hydrolysis of adenosine-5′-triphosphate (ATP) is monitored using the Transcreener ADP (adenosine-5′-diphosphate) assay (BellBrook Labs). Purified human RIP1 kinase domain (2-375) (50 nM) derived from a baculovirus-infected insect cell expression system is incubated with test compounds for 2 hours in 50 mM Hepes buffer (pH 7.5) containing 30 mM MgCl2, 1 mM dithiothreitol, 50 uM ATP, 0.002% Brij-35, and 0.5% dimethyl sulfoxide (DMSO). […] The tracer bound to the antibody is displaced by the ADP generated during the RIP1K reaction, which causes a decrease in fluorescence polarization that is measured by laser excitation at 633 nm with a FP microplate reader M1000. Fractional activity was plotted against test article concentration. Using Genedata Screener software (Genedata; Basel, Switzerland), the data were fit to the tight-binding apparent inhibition constant (Ki^app) Morrison equation [Williams, J. W. and Morrison, J. F. (1979) The kinetics of reversible tight-binding inhibition. Methods Enzymol 63: 437-67]. The following equation was used to calculate fractional activity and Ki^app:
[formula] where [E]T and [I]T are the total concentrations of active enzyme and test article, respectively.
“Method” in the first column of each table refers to the synthetic method(s) used to prepare each compound as shown in the Examples above. In certain examples, chiral column retention times (min) are provided for certain stereoisomers.

Where [1] appears, read: tight-binding apparent inhibition constant, human RIP1 kinase domain (2-375) 50 nM, 2 hours, read-out: Ki.
[2] abbreviates: Table 5, apparent Ki (Morrison tight-binding fit), 50 nM RIP1 kinase domain, 2 hours incubation, read-out: Ki.
The mark [3] stands for this setting: human RIP1 kinase domain (2-375), 2 hours incubation, Transcreener ADP assay, read-out: RIP1 Ki.

Read-outs that look alike come from different tables or passages of the source.

The values that follow come from US10988459B2 (priority 2015, dated 2021).

Chain of human RIP1 kinase domain (2-375) (Q13546 2-375): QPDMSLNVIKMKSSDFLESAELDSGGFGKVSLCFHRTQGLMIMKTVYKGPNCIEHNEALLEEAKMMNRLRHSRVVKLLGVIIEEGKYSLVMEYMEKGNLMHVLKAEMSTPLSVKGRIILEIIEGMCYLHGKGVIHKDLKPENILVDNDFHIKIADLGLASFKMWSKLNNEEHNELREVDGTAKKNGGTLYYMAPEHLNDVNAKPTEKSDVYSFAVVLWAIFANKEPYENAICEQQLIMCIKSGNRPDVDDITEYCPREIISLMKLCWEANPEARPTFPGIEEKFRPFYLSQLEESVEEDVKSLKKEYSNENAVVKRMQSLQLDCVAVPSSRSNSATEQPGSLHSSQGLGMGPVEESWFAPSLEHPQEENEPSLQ

As for `Cc1cn2c(n1)N(C)C(=O)[C@H](NC(=O)c1ncn(Cc3c(F)cccc3F)n1)CC2` [Example 660, 1-[(2,6-difluorophenyl)methyl]-N-(7R)-2,9-dimethyl-8-oxo-6,7-dihydro-5H-imidazo[1,2-a][1,3]diazepin-7-yl-1,2,4-triazole-3-carboxamide], under setting [1], the Ki came to 62 nM.

`CN1C(=O)[C@@H](NC(=O)c2nc3n(n2)CCC3c2ccccc2)CCn2nccc21` (stereo partly drawn) [Example 579, 7-phenyl-N-[(6S)-4-methyl-5-oxo-7,8-dihydro-6H-pyrazolo[1,5-a][1,3]diazepin-6-yl]-6,7-dihydro-5H-pyrrolo[1,2-b][1,2,4]triazole-2-carboxamide]: the Ki under setting [1] stood at 37 nM. As to `CCC1CCCc2nc(C(=O)N[C@H]3CCn4nccc4N(C)C3=O)nn21` (stereo partly drawn) [Example 379, 5-ethyl-N—((S)-4-methyl-5-oxo-5,6,7,8-tetrahydro-4H-pyrazolo[1,5-a][1,3]diazepin-6-yl)-5,6,7,8-tetrahydro-[1,2,4]triazolo[1,5-a]pyridine-2-carboxamide], under setting [1], the Ki stood at 374 nM. As to `Cc1cc2n(n1)CC[C@H](NC(=O)c1ncc3c(n1)[C@@](C)(CC(F)(F)F)OC3)C(=O)N2C` (racemic) [Example 686, rac-(7R)-7-methyl-N-[rac-(6S)-2,4-dimethyl-5-oxo-7,8-dihydro-6H-pyrazolo[1,5-a][1,3]diazepin-6-yl]-7-(2,2,2-trifluoroethyl)-5H-furo[3,4-d]pyrimidine-2-carboxamide], the Ki under setting [1] was 1100 nM. On to `CN1C(=O)C(NC(=O)c2ncn(CC3CCC(F)(F)CC3)n2)CCn2nc(C3CC3)cc21` (stereo not shown) [Example 255, N-(2-cyclopropyl-4-methyl-5-oxo-5,6,7,8-tetrahydro-4H-pyrazolo[1,5-a][1,3]diazepin-6-yl)-1-((4,4-difluorocyclohexyl)methyl)-1H-1,2,4-triazole-3-carboxamide], for which, where the note is “human RIP1 kinase domain (2-375), Transcreener ADP assay, 2 hours incubation, read-out: RIP1 Ki”, the Ki stood at 421 nM. On to `CC(C)C1CCc2nc(C(=O)N[C@H]3CCn4nccc4N(C)C3=O)nn21` (stereo partly drawn) [Example 346, 5-isopropyl-N-[(6S)-4-methyl-5-oxo-7,8-dihydro-6H-pyrazolo[1,5-a][1,3]diazepin-6-yl]-6,7-dihydro-5H-pyrrolo[1,2-b][1,2,4]triazole-2-carboxamide], for which, under setting [1], the Ki came to 175 nM. As for `CN1C(=O)[C@@H](NC(=O)c2ncn(Cc3ccccc3)n2)CCn2nc(CNCC(F)(F)F)cc21` (single isomer, unassigned) [Example 733], the Ki under setting [2] was 68 nM. With `CN1C(=O)[C@@H](NC(=O)c2ncn(Cc3ccccc3)n2)CCn2nc([C@H]3CC3(F)F)cc21` (stereo in doubt) [Example 679, 1-benzyl-N-[rac-(6S)-4-methyl-5-oxo-2-[rac-(1R)-2,2-difluorocyclopropyl]-7,8-dihydro-6H-pyrazolo[1,5-a] [1,3diazepin-6-yl]-1,2,4-triazole-3-carboxamide], under setting [1], the Ki is 21.6 nM.

In the case of `CCC[C@@]1(C)OCc2cnc(C(=O)N[C@H]3COc4cc(F)cc(F)c4NC3=O)nc21` [Example 620, (7R)-7-methyl-7-propyl-N-[(3S)-6,8-difluoro-4-oxo-3,5-dihydro-2H-1,5-benzoxazepin-3-yl]-5H-furo[3,4-d]pyrimidine-2-carboxamide], the Ki under setting [1] was determined as 14 nM. Take `O=C(N[C@H]1CCc2cc(F)cc(F)c2NC1=O)c1nc2n(n1)[C@H](C(F)(F)F)CCC2` (single isomer, unassigned) [Example 430]: the Ki under setting [1] is 21 nM. On to `CN1C(=O)[C@@H](NC(=O)c2ncn3ccc(C(F)(F)F)cc23)CCn2nccc21` [Example 75, (S)-N-(4-methyl-5-oxo-5,6,7,8-tetrahydro-4H-pyrazolo[1,5-a][1,3]diazepin-6-yl)-7-(trifluoromethyl)imidazo[1,5-a]pyridine-1-carboxamide], for which, where the note is “Table 1, apparent Ki (Morrison tight-binding fit), 50 nM RIP1 kinase domain, 2 hours incubation, read-out: RIP1 Ki”, the Ki is 231 nM.

Regarding `CN1C(=O)[C@@H](NC(=O)c2nc3n(n2)CCNC3c2ccccc2)COc2ccccc21` (stereo partly drawn) [Example 723, N-[(3S)-5-methyl-4-oxo-2,3-dihydro-1,5-benzoxazepin-3-yl]-8-phenyl-5,6,7,8-tetrahydro-[1,2,4]triazolo[1,5-a]pyrazine-2-carboxamide], under setting [2], the Ki was found to be 206 nM. `CN1C(=O)[C@@H](NC(=O)c2nc3cccc(-c4ccoc4)n3n2)COc2ccccc21` [Example 399, (S)-5-(furan-3-yl)-N-(5-methyl-4-oxo-2,3,4,5-tetrahydrobenzo[b][1,4]oxazepin-3-yl)-[1,2, 4]triazolo[1,5-a]pyridine-2-carboxamide]: the Ki under setting [1] came to 4.5 nM. With `Cc1cc2n(n1)CC[C@H](NC(=O)c1ncc3cnn(-c4ccccn4)c3n1)C(=O)N2C` [Example 632, 1-(2-pyridyl)-N-[(6S)-2,4-dimethyl-5-oxo-7,8-dihydro-6H-pyrazolo[1,5-a][1,3]diazepin-6-yl]pyrazolo[3,4-d]pyrimidine-6-carboxamide], the Ki under setting [1] is 3100 nM. On to `CN1C(=O)[C@@H](NC(=O)c2nc3n(n2)CCN(C)C3c2ccccc2)COc2ccccc21` (stereo partly drawn) [Example 786, 7-methyl-N-[(3S)-5-methyl-4-oxo-2,3-dihydro-1,5-benzoxazepin-3-yl]-8-phenyl-6,8-dihydro-5H-[1,2,4]trizolo [1,5-a]pyrazine-2-carboxamide], for which, under setting [2], the Ki came out at 112 nM. Take `CN1C(=O)[C@@H](NC(=O)c2ncn(Cc3ncccc3F)n2)CCn2nccc21` [Example 653, 1-[(3-fluoro-2-pyridyl)methyl]-N-(6S)-4-methyl-5-oxo-7,8-dihydro-6H-pyrazolo[1,5-a][1,3]diazepin-6-yl-1,2,4-triazole-3-carboxamide]: the Ki under setting [1] came to 110 nM. The same measure, in the same setting: then `CN1C(=O)[C@@H](NC(=O)c2ncn(Cc3ccccc3)n2)CCn2nc(C[C@@H]3CC3(F)F)cc21` [Example 548, 1-benzyl-N-(6S)-4-methyl-5-oxo-2-[(1R)-2,2-difluorocyclopropylmethyl]-7,8-dihydro-6H-pyrazolo[1,5-a][1,3]diazepin-6-yl-1,2,4-triazole-3-carboxamide], with 9.7 nM. Turning to `CN1C(=O)[C@@H](NC(=O)c2nc3n(n2)CCNC3C(F)(F)F)COc2ccccc21` (stereo partly drawn) [Example 731, N—((S)-5-methyl-4-oxo-2,3,4,5-tetrahydrobenzo[b][1,4]oxazepin-3-yl)-8-(trifluoromethyl)-5,6,7,8-tetrahydro-[1,2,4]triazolo[1,5-a]pyrazine-2-carboxamide], the Ki under setting [2] was 300 nM. With `Cc1cc(F)c2c(c1)OC[C@H](NC(=O)c1n[nH]c3c1C[C@H](C(F)(F)F)CC3)C(=O)N2` [Example 89, (R)—N—((S)-6-fluoro-8-methyl-4-oxo-2,3,4,5-tetrahydrobenzo[b][1,4]oxazepin-3-yl)-5-(trifluoromethyl)-4,5,6,7-tetrahydro-1H-indazole-3-carboxamide], the Ki under setting [3] stood at 55.4 nM. In the case of `CN1C(=O)[C@@H](NC(=O)c2nc3n(n2)C(c2ccccc2F)CCC3)CCn2nccc21` (stereo partly drawn) [Example 387, 5-(2-fluorophenyl)-N—((S)-4-methyl-5-oxo-5,6,7,8-tetrahydro-4H-pyrazolo[1,5-a][1,3]diazepin-6-yl)-5,6,7,8-tetrahydro-[1,2,4]triazolo[1,5-a]pyridine-2-carboxamide], the Ki under setting [1] worked out at 100 nM. As to `CCc1cc2n(n1)CC[C@H](NC(=O)c1ncn(Cc3ccccc3F)n1)C(=O)N2C` [Example 464, (S)—N-(2-ethyl-4-methyl-5-oxo-5,6,7,8-tetrahydro-4H-pyrazolo[1,5-a][1,3]diazepin-6-yl)-1-(2-fluorobenzyl)-1H-1,2,4-triazole-3-carboxamide], the Ki under setting [1] turned out to be 14 nM.

Regarding `CN1C(=O)[C@@H](NC(=O)c2cc3c(cn2)CO[C@@]3(C)CC(F)(F)F)COc2ccccc21` [Example 168, (S)-1-methyl-N-((S)-5-methyl-4-oxo-2,3,4,5-tetrahydrobenzo[b][1,4]oxazepin-3-yl)-1-(2,2,2-trifluoroethyl)-1,3-dihydrofuro[3,4-c]pyridine-6-carboxamide], the Ki under setting [3] came to 269 nM. As for `CN1C(=O)C(NC(=O)c2ncn(Cc3ccccc3)n2)CCn2nc3c(c21)CSC3` (stereo not shown) [Example 142, 1-benzyl-N-(1-methyl-2-oxo-1,2,3,4,5,10-hexahydro-8H-thieno[3′,4′:3,4]pyrazolo[1,5-a][1,3]diazepin-3-yl)-1H-1,2,4-triazole-3-carboxamide], the Ki under setting [3] turned out to be 65.8 nM.

For `Cc1cc2n(n1)CC[C@H](NC(=O)c1cn(Cc3ccccc3)cn1)C(=O)N2C` [Example 751, 1-benzyl-N-[(6S)-2,4-dimethyl-5-oxo-7,8-dihydro-6H-pyrazolo[1,5-a][1,3]diazepin-6-yl]imidazole-4-carboxamide], the Ki under setting [2] is 44 nM. Turning to `CN1C(=O)[C@@H](NC(=O)c2nc3n(n2)C(C2CCCCC2)CCC3)CCn2nccc21` (stereo partly drawn) [Example 381, 5-cyclohexyl-N—((S)-4-methyl-5-oxo-5,6,7,8-tetrahydro-4H-pyrazolo[1,5-a][1,3]diazepin-6-yl)-5,6,7,8-tetrahydro-[1,2,4]triazolo[1,5-a]pyridine-2-carboxamide], the Ki under setting [1] was 282 nM.
